Measurements from US8022047B2, “Combination anticancer agents” (Chugai Seiyaku Kabushiki Kaisha, priority 2005, dated 2011).
Where two headings read alike, the source gives them in different places.

What was measured:
[1] = test system: human colorectal cancer HCT116 xenograft
Method: The human colorectal cancer cell line HCT116 was purchased from ATCC. Cells were monolayer cultured in McCoy's 5a medium containing 2 mM L-glutamine and 10% (v/v) fetal bovine serum.
Five-week old male athymic nude mice (BALB/c nu/nu) were purchased from Charles River Japan. The mice were reared for at least one week prior to the experiment at the animal facility of the research institute.
A single cell suspension of HCT116 (8×10^6 cells per mouse) was inoculated subcutaneously into the right side of the abdomen of each mouse. The tumor size of each mouse was measured twice a week and the tumor volume was estimated using the ab^2/2 formula (a and b refer to the length and width of the tumor, respectively). Randomization and administration pharmaceuticals were begun the day the tumor volume exceeded 100 mm^3
The dosage is as follows.
Capecitabine was dissolved and diluted in 40 mM citric acid buffer (pH6) containing 5% gum arabic.

[2] = test system: human lung cancer Calu-6 xenograft; experiment: Antitumor effect in xenograft model, compound 2A plus CDDP or carboplatin (Example 4); type: in vivo; details: mice; i.v. once in a three-week period
Method: The human lung cancer cell line Calu-6 was purchased from ATCC.
CPT-11, CDDP, and carboplatin were purchased from Daiichi Pharmaceuticals, Nippon Kayaku, and Bristol-Meyers Squibb, respectively.
Compound 2A, CPT-11, CDDP, and carboplatin were dissolved and diluted in a saline solution. […] CDDP and carboplatin were intravenously administered once in a three-week period.
In one therapeutic cycle, compound 2A and CPT-11 were administered once a week for three consecutive weeks, and CDDP and carboplatin were administered once in the three-week period.

[3] = test system: human pancreatic cancer Capan-1 xenograft; details: mice; i.v. once a week for four consecutive weeks
Method: A single cell suspension of Capan-1 (8.4×10^6 cells per mouse) was inoculated subcutaneously into the right side of the abdomen of each mouse. The tumor size of each mouse was measured twice a week and the tumor volume was estimated using the ab^2/2 formula (a and b refer to the length and width of the tumor, respectively). Randomization and administration of pharmaceuticals were begun the day the tumor volume exceeded 100 mm^3
Gemcitabine was dissolved and diluted in physiological saline, and intravenously administered once a week for four consecutive weeks.
Gemcitabine was administered once a week for four consecutive weeks.

For CCCCCOC(=O)Nc1nc(=O)n([C@@H]2O[C@H](C)[C@@H](O)[C@H]2O)cc1F [capecitabine], the “MTD (maximum tolerated dose)” value ([1]; mouse, in vivo, po) was 360 mg/kg/injection.

N.N.O=C([O-])C1(C(=O)[O-])CCC1.[Pt+2] [carboplatin] was tested, and the “MTD (maximum tolerated dose)” value [2] was 50 mg/kg/injection.

In the case of CCCCCN1C=Nc2cccc3nc4c(c1c23)Cn1c-4cc2c(c1=O)COC(=O)[C@@]2(CC)OC(=O)CN(C)C(=O)CN.Cl [compound 2A, (9S)-9-ethyl-9-(glycyl-sarcosyloxy)-1-pentyl-1H,12H-pyrano[3″,4″:6′,7′]indolizino[1′,2′:6,5]pyrido[4,3,2-de]quinazoline-10,13(9H,15H)-dione hydrochloride], the “MTD (maximum tolerated dose)” value ([1]; mice, i.v. once during a three-week period, actually measured weight of the hydrochloride) is reported as 60 mg/kg/injection and the “MTD (maximum tolerated dose) as free base” value ([1]; mice, i.v. once during a three-week period, weight converted to free base) is reported as 47 mg/kg/injection.

For Nc1ccn([C@@H]2O[C@H](CO)[C@@H](O)C2(F)F)c(=O)n1 [gemcitabine], the “MTD (maximum tolerated dose)” value [3] was 400 mg/kg/injection.
